Source: PubChem BioAssay AID330 (DTP/NCI, 2004)
“And” between values parts separate entries of the source, which are not always exact repeats. Identical values can stand only once. Inconclusive results and toxic doses are left out. Rule for the calls: active = survival T/C of 150% or more; inactive = T/C below 125% in these data.

Test system: P388 leukemia ip, CD2F1 mice, survival T/C
Assay: NCI In Vivo Anticancer Drug Screen. Data for tumor model P388 Leukemia (intraperitoneal) in CD2F1 (CDF1) mice
Settings: endpoint: median survival time, higher = longer survival
Method in brief: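 Mice carrying the transplanted tumor received test compound or vehicle. Survival was recorded in each group, and the value is the treated-group measurement divided by that of the vehicle-treated control group.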

[1] = dose: 100.0 mg/kg/injection, schedule: Q01DX009 (ip), vehicle: saline with Tween-80
[2] = dose: 200.0 mg/kg/injection, schedule: Q01DX009 (ip), vehicle: saline with Tween-80
[3] = dose: 50.0 mg/kg/injection, schedule: Q01DX009 (ip), vehicle: saline with Tween-80
[4] = dose: 60.0 mg/kg/injection, schedule: Q01DX005 (ip), vehicle: saline with Tween-80
[5] = dose: 120.0 mg/kg/injection, schedule: Q01DX005 (ip), vehicle: saline with Tween-80
[6] = dose: 240.0 mg/kg/injection, schedule: Q01DX005 (ip), vehicle: saline with Tween-80
[7] = dose: 50.0 mg/kg/injection, schedule: Q01DX009 (ip), vehicle: saline
[8] = dose: 100.0 mg/kg/injection, schedule: Q01DX009 (ip), vehicle: saline
[9] = dose: 200.0 mg/kg/injection, schedule: Q01DX009 (ip), vehicle: saline
[10] = dose: 50.0 mg/kg/injection, schedule: Q01DX009 (ip), vehicle: Klucel (hydroxypropylcellulose) (HPC)
[11] = dose: 100.0 mg/kg/injection, schedule: Q01DX009 (ip), vehicle: Klucel (hydroxypropylcellulose) (HPC)
[12] = dose: 100.0 mg/kg/injection, schedule: Q04DX003 (ip), vehicle: saline with Tween-80
[13] = dose: 200.0 mg/kg/injection, schedule: Q04DX003 (ip), vehicle: saline with Tween-80
[14] = dose: 25.0 mg/kg/injection, schedule: Q01DX009 (ip), vehicle: Klucel (hydroxypropylcellulose) (HPC)
[15] = dose: 60.0 mg/kg/injection, schedule: Q01DX005 (ip), vehicle: Klucel (hydroxypropylcellulose) (HPC)
[16] = dose: 120.0 mg/kg/injection, schedule: Q01DX005 (ip), vehicle: Klucel (hydroxypropylcellulose) (HPC)

Measured: T/C

CCN(CC)CCCNc1cc(OC)cc2nc3ccccc3nc12
inactive: dose: 12.5 mg/kg/injection, schedule: Q01DX005 (ip), vehicle: saline 104 % of control | dose: 25.0 mg/kg/injection, schedule: Q01DX005 (ip), vehicle: saline 104 % of control | dose: 50.0 mg/kg/injection, schedule: Q01DX005 (ip), vehicle: saline 99 % of control and 112 % of control | dose: 100.0 mg/kg/injection, schedule: Q01DX005 (ip), vehicle: saline 114 % of control

O=C1N/C(=N\c2nc3ccccc3s2)c2ccccc21
inactive: dose: 6.25 mg/kg/injection, schedule: Q01DX009 (ip), vehicle: saline with Tween-80 88 % of control | dose: 25.0 mg/kg/injection, schedule: Q01DX009 (ip), vehicle: saline with Tween-80 91 % of control | [1] 86 % of control | [2] 89 % of control

CC(=O)CC(=O)c1ccccc1.CC(=O)CC(=O)c1ccccc1.[CH3][Sn][CH3]
inactive: dose: 100.0 mg/kg/injection, schedule: Q01DX001 (ip), vehicle: Klucel (hydroxypropylcellulose) (HPC) 95 % of control | dose: 200.0 mg/kg/injection, schedule: Q01DX001 (ip), vehicle: Klucel (hydroxypropylcellulose) (HPC) 99 % of control | dose: 400.0 mg/kg/injection, schedule: Q01DX001 (ip), vehicle: Klucel (hydroxypropylcellulose) (HPC) 96 % of control

CC(=O)OC1CC(O)CC2=CCC3C4CCC(C(C)(O)C(O)CC5COC(=O)C5C)C4(C)CCC3C21C (stereo not given)
inactive: dose: 4.0 mg/kg/injection, schedule: Q01DX005 (ip), vehicle: distilled water + Tween-80 96 % of control | dose: 8.0 mg/kg/injection, schedule: Q01DX005 (ip), vehicle: distilled water + Tween-80 95 % of control | dose: 16.0 mg/kg/injection, schedule: Q01DX005 (ip), vehicle: distilled water + Tween-80 96 % of control | dose: 32.0 mg/kg/injection, schedule: Q01DX005 (ip), vehicle: distilled water + Tween-80 91 % of control and 97 % of control | dose: 64.0 mg/kg/injection, schedule: Q01DX005 (ip), vehicle: distilled water + Tween-80 87 % of control and 94 % of control

COc1cccc(/C=N/NC(=O)C2CCN(C(=S)NC3CC4C=CC3C4)CC2)c1O (stereo not given)
inactive: dose: 12.5 mg/kg/injection, schedule: Q01DX009 (ip), vehicle: saline with Tween-80 101 % of control | [3] 99 % of control and 97 % of control | [1] 103 % of control | [2] 103 % of control

CCOC(=O)/C=C/C(=O)NNS(=O)(=O)CCC(N)C(=O)O (stereo not given)
inactive: dose: 12.5 mg/kg/injection, schedule: Q01DX009 (ip), vehicle: water 101 % of control | dose: 25.0 mg/kg/injection, schedule: Q01DX009 (ip), vehicle: water 95 % of control | dose: 50.0 mg/kg/injection, schedule: Q01DX009 (ip), vehicle: water 100 % of control | dose: 100.0 mg/kg/injection, schedule: Q01DX009 (ip), vehicle: water 116 % of control

OCCCNc1nc2cc(Cl)ccc2o1
inactive: [4] 119 % of control | [5] 103 % of control | [6] 100 % of control

CC1(C)CC(OP(=O)(OC2CC(C)(C)N(O)C(C)(C)C2)OC2CC(C)(C)N(O)C(C)(C)C2)CC(C)(C)N1O
inactive: dose: 100.0 mg/kg/injection, schedule: Q04DX002 (ip), vehicle: Klucel (hydroxypropylcellulose) (HPC) 92 % of control | dose: 200.0 mg/kg/injection, schedule: Q04DX002 (ip), vehicle: Klucel (hydroxypropylcellulose) (HPC) 99 % of control | dose: 400.0 mg/kg/injection, schedule: Q04DX002 (ip), vehicle: Klucel (hydroxypropylcellulose) (HPC) 104 % of control

CN1C(=O)Cn2c(nn(CCN3CCCC3)c(=O)c2=O)-c2cc(Cl)ccc21
inactive: [7] 103 % of control | [8] 105 % of control | [9] 103 % of control

CC(=O)N=C1CSc2ccccc2N1C
inactive: dose: 50.0 mg/kg/injection, schedule: Q01DX005 (ip), vehicle: saline + alcohol 99 % of control | dose: 100.0 mg/kg/injection, schedule: Q01DX005 (ip), vehicle: saline + alcohol 103 % of control | dose: 200.0 mg/kg/injection, schedule: Q01DX005 (ip), vehicle: saline + alcohol 109 % of control

CC1=C(/C=C/Cl)CC(Cl)C(C)(Cl)C1 (stereo not given)
inactive: dose: 2.5 mg/kg/injection, schedule: Q01DX009 (ip), vehicle: Klucel (hydroxypropylcellulose) (HPC) 102 % of control | dose: 5.0 mg/kg/injection, schedule: Q01DX009 (ip), vehicle: Klucel (hydroxypropylcellulose) (HPC) 102 % of control | dose: 10.0 mg/kg/injection, schedule: Q01DX009 (ip), vehicle: Klucel (hydroxypropylcellulose) (HPC) 93 % of control | dose: 20.0 mg/kg/injection, schedule: Q01DX009 (ip), vehicle: Klucel (hydroxypropylcellulose) (HPC) 99 % of control

O=c1c(Cc2ccc(Cl)cc2)coc2ccccc12
inactive: [4] 94 % of control | [5] 94 % of control | [6] 101 % of control

CP1(=S)C=C(N2CCCC2)CC1 (stereo not given)
inactive: [10] 107 % of control and 109 % of control | [11] 99 % of control and 120 % of control | dose: 200.0 mg/kg/injection, schedule: Q01DX009 (ip), vehicle: Klucel (hydroxypropylcellulose) (HPC) 104 % of control and 95 % of control

CCCCCCCCCCC(O)CCCCCCCCCC
inactive: [12] 95 % of control | [13] 90 % of control

CC1CCCN(CCSSCCN2CCCC(C)C2)C1 (stereo not given)
inactive: dose: 12.5 mg/kg/injection, schedule: Q01DX009 (ip), vehicle: saline 109 % of control | dose: 25.0 mg/kg/injection, schedule: Q01DX009 (ip), vehicle: saline 113 % of control | [7] 113 % of control

O=C1CC2(CCCCC2)C(=O)N1c1cc([N+](=O)[O-])ccn1
inactive: dose: 12.5 mg/kg/injection, schedule: Q01DX009 (ip), vehicle: Klucel (hydroxypropylcellulose) (HPC) 100 % of control | [14] 101 % of control | [10] 100 % of control and 92 % of control

c1ccc2c3c(ccc2c1)OCN(C12CC4CC(CC(C4)C1)C2)C3
inactive: [12] 100 % of control | [13] 110 % of control | dose: 400.0 mg/kg/injection, schedule: Q04DX003 (ip), vehicle: saline with Tween-80 110 % of control

NC(=O)CSc1ncnc2nc[nH]c12
inactive: [7] 97 % of control | [8] 100 % of control | [9] 102 % of control

Cc1c([N+](=O)[O-])c(=O)[nH]n1C
inactive: [3] 96 % of control | [1] 88 % of control | [2] 89 % of control

COC(c1cc(C(O)(C(F)(F)F)C(F)(F)F)cc(C(OC)(C(F)(F)F)C(F)(F)F)c1)(C(F)(F)F)C(F)(F)F
inactive: dose: 100.0 mg/kg/injection, schedule: Q04DX003 (ip), vehicle: Klucel (hydroxypropylcellulose) (HPC) 100 % of control | dose: 200.0 mg/kg/injection, schedule: Q04DX003 (ip), vehicle: Klucel (hydroxypropylcellulose) (HPC) 100 % of control | dose: 400.0 mg/kg/injection, schedule: Q04DX003 (ip), vehicle: Klucel (hydroxypropylcellulose) (HPC) 92 % of control

CC(C)(C)n1nc(C2CC2)cc1NC(=O)Nc1ccccc1
inactive: dose: 30.0 mg/kg/injection, schedule: Q01DX005 (ip), vehicle: Klucel (hydroxypropylcellulose) (HPC) 99 % of control | [15] 98 % of control | [16] 98 % of control

O=C(O)c1ccc(-c2c3ccc(=O)cc-3oc3cc(O)ccc23)cc1
inactive: [15] 100 % of control | [16] 97 % of control | dose: 240.0 mg/kg/injection, schedule: Q01DX005 (ip), vehicle: Klucel (hydroxypropylcellulose) (HPC) 100 % of control

COC1/C=C/OC2(C)Oc3c(C)c(O)c4c(c3C2=O)C(N)=C(NC2CC2)C(=NC(=O)/C(C)=C\C=C\C(C)C(O)C(C)C(O)C(C)C(OC(C)=O)C1C)C4=O (stereo not given)
inactive: [14] 102 % of control | [10] 103 % of control | [11] 119 % of control
